From patent US8124655B2, “Use of LR-90 and LR-102 to overcome insulin resistance” (City of Hope, priority 2007, dated 2012)

Key:
[1] = system: Zucker diabetic fatty (ZDF) rat; test: Kidney histopathology: PAMS and Masson's trichrome staining; type: in vivo; details: kidney of ZDF rats, p<0.01 vs ZDF
From the text: Kidney sections were stained with periodic acid-Schiff-methenamine silver (PAMS) to evaluate glomerulosclerosis and mesangial matrix expansion; Masson's trichrome staining was used to analyse collagen deposition and cortical tubule degeneration. Glomerulosclerosis was defined as glomerular basement membrane thickening, mesangial hypertrophy and capillary occlusion, and was semiquantitatively evaluated on an arbitrary scale of 0 to 4: grade 0 (normal); grade 1 (sclerotic area less than 25%); grade 2 (sclerotic area 25-50%); grade 3 (sclerotic area 50-75%); and grade 4 (sclerotic area more than 75%). The glomerulosclerotic index was then calculated as described. Briefly, 100 glomeruli were randomly chosen from each rat kidney stained with PAMS and carefully scored for sclerosis by two blinded investigators. This was done in a sequential manner to ensure that the same glomerulus was not graded twice. To quantify for mesangial expansion and ECM accumulation in the mesangial areas, PAMS-positive materials in the mesangial region excluding cellular elements were analysed using an image analyser with a microscope (Olympus AX70; Olympus Optical, Hamburg, Germany) and photographed using a Retiga 2000R CCD camera (Qimaging, Surrey, BC, Canada). Twenty glomeruli, randomly selected from each rat were evaluated by two investigators without knowledge of the origin of the slides. The percentage of PAMS-positive area in each glomerulus was analysed using Image Pro Plus (Media Cybernetics, Silver Spring, Mass., USA). Results were expressed as percentage of areas positive for PAMS staining. To evaluate cortical tubule degeneration and collagen deposition, kidney sections were stained withMasson's trichrome. In each section, six fields of kidney cortex were randomly selected at 100× magnification using an Olympus AX70 microscope, photographed using a Retiga 2000R camera and the images analysed by Image Pro Plus. Blue and red colours indicate collagen and cytoplasm staining, respectively. Degenerate tubules in each field were identified by the absence of cytoplasm and results expressed as number of degenerate tubules per field. For quantitative measurement of collagen deposition, positively stained areas from six random regions in each slide were identified and scored by dividing the positively stained areas by the total tissue area in the same field using the colour separation function of Image Pro Plus. Results were expressed as percentage of area with positive staining.

[2] = described in U.S. Pat. No. 6,787,566; cited from earlier work

For CC(C)(Oc1ccc(NC(=O)Nc2ccc(Cc3ccc(NC(=O)Nc4ccc(OC(C)(C)C(=O)O)cc4)c(Cl)c3)cc2Cl)cc1)C(=O)O [LR-90, methylene bis[4,4′-(2-chlorophenylureidophenoxyisobutyric acid)]], the “quantitative scoring for PAMS staining” value ([1]; FIG. 1c) was “reduced significantly”, the tubular degeneration ([1]; FIG. 1e) was “reduced significantly” and the “percentage positive collagen area staining” value ([1]; FIG. 1f) was “reduced significantly”. For the same compound, the “glomerulosclerosis index (GSI)” value ([1]; FIG. 1d) was “reduced significantly” and the “breaking AGE-protein cross-links” value [2] was “active”.
